Data as given in the NIST ThermoML archive (doi:10.1016/j.jct.2006.04.007).
“And” between values parts separate entries of the source, which are not always exact repeats. Identical values can stand only once.

Experiment: mn = molality of the nth substance listed, in mol/kg
Conditions: 350 kPa, Liquid; for apparent molar heat capacity: Extra sensitive DSC

CC(=O)N[C@@H](C=O)[C@@H](O)[C@H](O)[C@H](O)CO [N-acetyl-D-glucosamine] + O
Conditions	apparent molar heat capacity	mass density
278.15 K, m1 = 0.0096	385 J/K/mol	–
278.15 K, m1 = 0.01	–	1000.31 kg/m3
278.15 K, m1 = 0.02	–	1001.78 kg/m3
278.15 K, m1 = 0.0207	377 J/K/mol	–
278.15 K, m1 = 0.03	365 J/K/mol and 358 J/K/mol	1002.26 kg/m3 and 1001.98 kg/m3
278.15 K, m1 = 0.07	362 J/K/mol	1005.5 kg/m3
278.15 K, m1 = 0.1502	348.5 J/K/mol	1012.23 kg/m3
278.15 K, m1 = 0.1999	368.5 J/K/mol	1014.67 kg/m3
278.15 K, m1 = 0.3018	373.1 J/K/mol	1021.8 kg/m3
278.15 K, m1 = 0.5001	378.3 J/K/mol	1035.28 kg/m3
278.15 K, m1 = 0.7003	380.2 J/K/mol	1047.7 kg/m3
278.15 K, m1 = 0.958	358.2 J/K/mol	1065.18 kg/m3
283.15 K, m1 = 0.0096	416 J/K/mol	–
283.15 K, m1 = 0.01	–	1000.13 kg/m3
283.15 K, m1 = 0.02	–	1001.42 kg/m3
283.15 K, m1 = 0.0207	403 J/K/mol	–
283.15 K, m1 = 0.03	385 J/K/mol and 387 J/K/mol	1001.76 kg/m3 and 1002.02 kg/m3
283.15 K, m1 = 0.07	385 J/K/mol	1005.11 kg/m3
283.15 K, m1 = 0.1502	374.5 J/K/mol	1011.82 kg/m3
283.15 K, m1 = 0.1999	392.8 J/K/mol	1014.24 kg/m3
283.15 K, m1 = 0.3018	396.5 J/K/mol	1021.3 kg/m3
283.15 K, m1 = 0.5001	401.6 J/K/mol	1034.59 kg/m3
283.15 K, m1 = 0.7003	403.8 J/K/mol	1046.91 kg/m3
283.15 K, m1 = 0.958	381.8 J/K/mol	1064.21 kg/m3
288.15 K, m1 = 0.0096	435 J/K/mol	–
288.15 K, m1 = 0.01	–	999.6 kg/m3
288.15 K, m1 = 0.02	–	1000.86 kg/m3
288.15 K, m1 = 0.0207	421 J/K/mol	–
288.15 K, m1 = 0.03	404 J/K/mol and 401 J/K/mol	1001.23 kg/m3 and 1001.43 kg/m3
288.15 K, m1 = 0.07	405 J/K/mol	1004.42 kg/m3
288.15 K, m1 = 0.1502	394.4 J/K/mol	1011.1 kg/m3
288.15 K, m1 = 0.1999	411.9 J/K/mol	1013.51 kg/m3
288.15 K, m1 = 0.3018	415.2 J/K/mol	1020.51 kg/m3
288.15 K, m1 = 0.5001	420.1 J/K/mol	1033.66 kg/m3
288.15 K, m1 = 0.7003	422 J/K/mol	1045.87 kg/m3
288.15 K, m1 = 0.958	400.5 J/K/mol	1063.03 kg/m3
293.15 K, m1 = 0.0096	450 J/K/mol	–
293.15 K, m1 = 0.0207	436 J/K/mol	–
293.15 K, m1 = 0.03	420 J/K/mol and 415 J/K/mol	–
293.15 K, m1 = 0.07	421 J/K/mol	–
293.15 K, m1 = 0.1502	411.4 J/K/mol	–
293.15 K, m1 = 0.1999	428.3 J/K/mol	–
293.15 K, m1 = 0.3018	431.3 J/K/mol	–
293.15 K, m1 = 0.5001	436 J/K/mol	–
293.15 K, m1 = 0.7003	437.9 J/K/mol	–
293.15 K, m1 = 0.958	416.6 J/K/mol	–
298.15 K, m1 = 0.0096	462 J/K/mol	–
298.15 K, m1 = 0.0207	449 J/K/mol	–
298.15 K, m1 = 0.03	433 J/K/mol and 432 J/K/mol	–
298.15 K, m1 = 0.07	437 J/K/mol	–
298.15 K, m1 = 0.1502	426.5 J/K/mol	–
298.15 K, m1 = 0.1999	442.5 J/K/mol	–
298.15 K, m1 = 0.3018	445.2 J/K/mol	–
298.15 K, m1 = 0.5001	449.8 J/K/mol	–
298.15 K, m1 = 0.7003	451.5 J/K/mol	–
298.15 K, m1 = 0.958	430.5 J/K/mol	–
303.15 K, m1 = 0.0096	474 J/K/mol	–
303.15 K, m1 = 0.0207	461 J/K/mol	–
303.15 K, m1 = 0.03	445 J/K/mol and 447 J/K/mol	–
303.15 K, m1 = 0.07	451 J/K/mol	–
303.15 K, m1 = 0.1502	440 J/K/mol	–
303.15 K, m1 = 0.1999	455 J/K/mol	–
303.15 K, m1 = 0.3018	457.8 J/K/mol	–
303.15 K, m1 = 0.5001	462.3 J/K/mol	–
303.15 K, m1 = 0.7003	463.7 J/K/mol	–
303.15 K, m1 = 0.958	443.2 J/K/mol	–
308.15 K, m1 = 0.0096	486 J/K/mol	–
308.15 K, m1 = 0.01	–	994.68 kg/m3
308.15 K, m1 = 0.02	–	995.7 kg/m3
308.15 K, m1 = 0.0207	472 J/K/mol	–
308.15 K, m1 = 0.03	456 J/K/mol and 459 J/K/mol	996.2 kg/m3 and 996.26 kg/m3
308.15 K, m1 = 0.07	462 J/K/mol	999.2 kg/m3
308.15 K, m1 = 0.1502	452.2 J/K/mol	1005.72 kg/m3
308.15 K, m1 = 0.1999	466.4 J/K/mol	1008.07 kg/m3
308.15 K, m1 = 0.3018	469.2 J/K/mol	1014.85 kg/m3
308.15 K, m1 = 0.5001	473.5 J/K/mol	1027.59 kg/m3
308.15 K, m1 = 0.7003	474.7 J/K/mol	1039.58 kg/m3
308.15 K, m1 = 0.958	454.6 J/K/mol	1056.31 kg/m3
313.15 K, m1 = 0.0096	496 J/K/mol	–
313.15 K, m1 = 0.0207	482 J/K/mol	–
313.15 K, m1 = 0.03	465 J/K/mol and 470 J/K/mol	–
313.15 K, m1 = 0.07	473.4 J/K/mol	–
313.15 K, m1 = 0.1502	463.3 J/K/mol	–
313.15 K, m1 = 0.1999	476.7 J/K/mol	–
313.15 K, m1 = 0.3018	479.6 J/K/mol	–
313.15 K, m1 = 0.5001	483.8 J/K/mol	–
313.15 K, m1 = 0.7003	484.8 J/K/mol	–
313.15 K, m1 = 0.958	465.2 J/K/mol	–
318.15 K, m1 = 0.0096	506 J/K/mol	–
318.15 K, m1 = 0.01	–	990.9 kg/m3
318.15 K, m1 = 0.02	–	991.84 kg/m3
318.15 K, m1 = 0.0207	491 J/K/mol	–
318.15 K, m1 = 0.03	474 J/K/mol and 479 J/K/mol	992.39 kg/m3 and 992.41 kg/m3
318.15 K, m1 = 0.07	483.8 J/K/mol	995.31 kg/m3
318.15 K, m1 = 0.1502	473.6 J/K/mol	1001.76 kg/m3
318.15 K, m1 = 0.1999	486.3 J/K/mol	–
318.15 K, m1 = 0.3018	489.2 J/K/mol	–
318.15 K, m1 = 0.5001	493.4 J/K/mol	–
318.15 K, m1 = 0.7003	494.2 J/K/mol	–
318.15 K, m1 = 0.958	475 J/K/mol	–
